Data from BindingDB's records for PubMed 38943875 (Kurukshetra University).
pIC50: −log10 of the molar value.

Target: T1, Alpha-amylase 1A (Homo sapiens, UniProt P0DUB6)
T1 sequence (P0DUB6 whole entry): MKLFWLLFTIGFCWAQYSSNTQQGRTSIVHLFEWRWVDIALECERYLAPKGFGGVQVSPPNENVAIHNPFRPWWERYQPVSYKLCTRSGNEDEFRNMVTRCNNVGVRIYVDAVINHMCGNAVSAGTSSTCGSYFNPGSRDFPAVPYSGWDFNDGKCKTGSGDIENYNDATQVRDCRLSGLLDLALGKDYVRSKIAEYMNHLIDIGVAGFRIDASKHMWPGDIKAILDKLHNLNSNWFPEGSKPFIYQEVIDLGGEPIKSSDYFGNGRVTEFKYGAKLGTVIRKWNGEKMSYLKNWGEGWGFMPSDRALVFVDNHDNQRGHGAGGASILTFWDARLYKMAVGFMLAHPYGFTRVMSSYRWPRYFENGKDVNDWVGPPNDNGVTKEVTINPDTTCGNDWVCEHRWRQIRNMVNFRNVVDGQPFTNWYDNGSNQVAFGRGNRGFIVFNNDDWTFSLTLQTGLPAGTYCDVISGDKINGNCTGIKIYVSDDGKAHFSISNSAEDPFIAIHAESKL
Test: Inhibition of alpha-amylase (unknown origin) using 1% starch as substrate preincubated for 30 mins followed by substrate addition and measured after 30 mins by colorimetric analysis

| pIC50 | Compound |
| --- | --- |
| 3.86 | C#CCN1C(=O)SC(=CN(C)C)C1=O |
| 4.21 | Cc1cccc(-n2cc(CN3C(=O)SC(=CN(C)C)C3=O)nn2)c1 |
| 4.23 | CN(C)C=C1SC(=O)N(Cc2cn(-c3ccc([N+](=O)[O-])cc3)nn2)C1=O |
| 4.00 | CN(C)C=C1SC(=O)N(Cc2cn(-c3ccccc3)nn2)C1=O |
| 4.28 | COc1ccc(-n2cc(CN3C(=O)SC(=CN(C)C)C3=O)nn2)cc1 |
| 4.40 | CN(C)C=C1SC(=O)N(Cc2cn(-c3ccnc4cc(Cl)ccc34)nn2)C1=O |
| 4.03 | CN(C)C=C1SC(=O)N(Cc2cn(-c3ccc(F)cc3)nn2)C1=O |
| 4.18 | CN(C)C=C1SC(=O)N(Cc2cn(-c3cccc(Cl)c3)nn2)C1=O |
| 4.01 | CN(C)C=C1SC(=O)N(Cc2cn(-c3ccc(Cl)cc3)nn2)C1=O |
| 4.24 | CCCCn1cc(CN2C(=O)SC(=CN(C)C)C2=O)nn1 |
| 4.32 | CN(C)C=C1SC(=O)N(Cc2cn(-c3ccccc3C(F)(F)F)nn2)C1=O |
| 4.26 | CN(C)C=C1SC(=O)N(Cc2cn(-c3cccc(C(F)(F)F)c3)nn2)C1=O |
| 4.08 | CN(C)C=C1SC(=O)N(Cc2cn(-c3ccc(C(F)(F)F)cc3)nn2)C1=O |
| 4.04 | CN(C)C=C1SC(=O)N(Cc2cn(-c3ccccc3Cl)nn2)C1=O |
| 4.16 | COc1cccc(-n2cc(CN3C(=O)SC(=CN(C)C)C3=O)nn2)c1 |
| 4.32 | Cc1ccc(-n2cc(CN3C(=O)SC(=CN(C)C)C3=O)nn2)c(C)c1 |
| 4.03 | Cc1ccc(C)c(-n2cc(CN3C(=O)SC(=CN(C)C)C3=O)nn2)c1 |
| 4.18 | Cc1cc(C)cc(-n2cc(CN3C(=O)SC(=CN(C)C)C3=O)nn2)c1 |
| 4.19 | COc1ccccc1-n1cc(CN2C(=O)SC(=CN(C)C)C2=O)nn1 |
| 4.22 | CN(C)C=C1SC(=O)N(Cc2cn(-c3cccc(Cl)c3Cl)nn2)C1=O |
| 4.17 | CCc1ccc(-n2cc(CN3C(=O)SC(=CN(C)C)C3=O)nn2)cc1 |
| 4.31 | CCc1ccccc1-n1cc(CN2C(=O)SC(=CN(C)C)C2=O)nn1 |
| 4.27 | CC(C)c1ccc(-n2cc(CN3C(=O)SC(=CN(C)C)C3=O)nn2)cc1 |
| 4.10 | CN(C)C=C1SC(=O)N(Cc2cn(Cc3ccccc3)nn2)C1=O |
| 4.35 | CN(C)C=C1SC(=O)N(Cc2cn(Cc3ccc(Cl)cc3Cl)nn2)C1=O |
| 4.11 | CN(C)C=C1SC(=O)N(Cc2cn(CC(=O)c3ccc(Br)cc3)nn2)C1=O |
